From patent publication US20210015752A1, “METHODS FOR PRODUCING PARTICLES OF AN ACTIVE INGREDIENT” (Savior Lifetec Corporation, priority 2017, published 2021) come the findings set out here.

Holding throughout (format): physicochemical
Data set [1] in a line: Emulsion test of L-ascorbic acid in various types of solvents. To be noted: stirred 3 hr. From the text:
Two combinations of solvents gave emulsified solutions, there were tetrahydrofuran/heptanes and methanol/water

A short description of data set [2]: Solubility test of paliperidone palmitate in various types of solvents. To be noted: ratio 1/15 (v/w), 30° C., stirred about 0.5 hour. As to the method:
The solubility of paliperidone palmitate in various types of solvents was evaluated. To this purpose, paliperidone palmitate and the designated solvent were mixed in a ratio of 1/15 (v/w) at 30° C. and the mixture was stirred for about 0.5 hour.

A short description of data set [3]: Emulsion test of paliperidone palmitate in various types of solvents. To be noted: stirred 3 hr. On the procedure:
Paliperidone palmitate was dissolved in DCM, THF, or toluene at 30° C. and stirred for about 0.5 hour to form a first solution, then a second solvent (as indicated in Table 2) was added and stirred for 3 hr. As the data in Table 2 indicated, among the 36 combinations (i.e., the combination of one of the 3 first solutions and one of the second solvents), only three combinations gave satisfied emulsified solutions, which comprised particles of paliperidone palmitate. The 3 combinations were THF/water, toluene/heptanes, and toluene/hexane, respectively.

Each structure is given as a SMILES string.

As to `O=C1O[C@H]([C@@H](O)CO)C(O)=C1O` [L-ascorbic acid], the “Emulsion test result of the first solution containing L-ascorbic acid with the second solvent” value is “emulsified” in data set [1] (first solvent methanol, second solvent water) and “emulsified” in data set [1] (first solvent tetrahydrofuran, second solvent heptanes).
Turning to `CCCCCCCCCCCCCCCC(=O)OC1CCCn2c1nc(C)c(CCN1CCC(c3noc4cc(F)ccc34)CC1)c2=O` (centres unmarked) [paliperidone palmitate], the “Solubility of paliperidone palmitate” value in data set [2] (solvent ACN) was “insoluble”; in data set [2] (solvent Acetone), “insoluble”; in data set [2] (solvent DCM) it was “soluble”; in data set [2] (solvent EtOAc) it was “insoluble”; in data set [2] (solvent EtOH), “insoluble”; in data set [2] (solvent Heptanes), “insoluble”. For the same compound, the “Solubility of paliperidone palmitate” value is reported as “insoluble” in data set [2] (solvent Hexane); “insoluble” in data set [2] (solvent IPA); “insoluble” in data set [2] (solvent MTBE); “soluble” in data set [2] (solvent THF); “soluble” in data set [2] (solvent Toluene); “insoluble” in data set [2] (solvent Water). Moreover, the “Solubility of the second solvent in the first solution containing paliperidone palmitate” value (“Solubility of the second solvent” for short) in data set [3] (first solvent DCM, second solvent ACN) is reported as “miscible”; in data set [3] (first solvent DCM, second solvent Acetone), “miscible”; in data set [3] (first solvent DCM, second solvent EtOAc), “miscible”; in data set [3] (first solvent DCM, second solvent EtOH) it was “miscible”; in data set [3] (first solvent DCM, second solvent Heptanes), “miscible”; in data set [3] (first solvent DCM, second solvent Hexane), “miscible”. Besides, the “Solubility of the second solvent” value is on record as “miscible” in data set [3] (first solvent DCM, second solvent IPA); “miscible” in data set [3] (first solvent DCM, second solvent MTBE); “miscible” in data set [3] (first solvent DCM, second solvent THF); “miscible” in data set [3] (first solvent DCM, second solvent Toluene); “layered” in data set [3] (first solvent DCM, second solvent Water); “miscible” in data set [3] (first solvent THF, second solvent ACN). For the same compound, the “Solubility of the second solvent” value in data set [3] (first solvent THF, second solvent Acetone) was “miscible”; in data set [3] (first solvent THF, second solvent DCM) it was “miscible”; in data set [3] (first solvent THF, second solvent EtOAc) it was “miscible”; in data set [3] (first solvent THF, second solvent EtOH), “miscible”; in data set [3] (first solvent THF, second solvent Heptanes) it was “miscible”; in data set [3] (first solvent THF, second solvent Hexane), “miscible”. Moreover, the “Solubility of the second solvent” value was “miscible” in data set [3] (first solvent THF, second solvent IPA); “miscible” in data set [3] (first solvent THF, second solvent MTBE); “miscible” in data set [3] (first solvent THF, second solvent Toluene); “emulsified” in data set [3] (first solvent THF, second solvent Water); “miscible” in data set [3] (first solvent Toluene, second solvent ACN); “miscible” in data set [3] (first solvent Toluene, second solvent Acetone). Further, the “Solubility of the second solvent” value in data set [3] (first solvent Toluene, second solvent DCM) is “miscible”; in data set [3] (first solvent Toluene, second solvent EtOAc), “miscible”; in data set [3] (first solvent Toluene, second solvent EtOH), “miscible”; in data set [3] (first solvent Toluene, second solvent Heptanes), “emulsified”; in data set [3] (first solvent Toluene, second solvent Hexane), “emulsified”; in data set [3] (first solvent Toluene, second solvent IPA), “miscible”. The “Solubility of the second solvent” value is on record as “miscible” in data set [3] (first solvent Toluene, second solvent MTBE); “miscible” in data set [3] (first solvent Toluene, second solvent THF); “layered” in data set [3] (first solvent Toluene, second solvent Water).
